From patent publication US4469631A, “Fusion peptides comprising an expressible bacterial gene and β-endorphin” (The Regents of the University of California, priority 1982, dated 1984)

Tests used:
[1] = tested on: prostaglandin E1-stimulated adenylate cyclase of NG 108-15 cells; conditions: literature; cited from earlier work
[2] = tested on: opiate receptors; conditions: Li, C. H., et al, Proc. Natl. Acad. Sci. 76, 3276 (1979); cited from earlier work
[3] = tested on: antiserum directed against mouse β-endorphin; test: Immunological activity: competition with 125I-labeled human β-endorphin for antiserum (radioimmunoassay); type: binding; conditions: dilution series of extract, 4° C., 24 hours; FIG. 5
Method: Immunological activity of β-endorphin produced according to the present invention was measured by its ability to compete with radioactively labeled human β-endorphin for antiserum directed against mouse β-endorphin. The human hormone differs from that of mouse only at position 27, where a tyrosine is present instead of histidine residue. […] Antiserum to mouse β-endorphin was prepared as described by Allen, et al., Proc. Nat'l. Acad. Sci. 75, 4972 (1978). […]
In the assay, a dilution series of β-endorphin sample prepared according to the present invention was incubated with a fixed amount of labeled human endorphin and a fixed amount of antiserum. […] The percentage of radioactivity remaining in the pellet was compared to the total radioactivity determined prior to incubation and plotted as a function of the concentration of the cell extracts.

[4] = tested on: rat brain opiate receptors; test: Receptor binding activity: competitive inhibition of binding of labeled opiate agonist or antagonist to rat brain membranes; conditions: result in words
Method: The opiate receptor preparation was prepared from rat membrane preparation isolated from male Sprague-Dawley rats (200-220 g) killed by decapitation. The brains, except for the cerebellum, were homogenized in 40 volumes of ice-cold Tris-HCl buffer pH 7.7. The homogenates were centrifuged at 600 g for 5 minutes, then the supernatant fluid was centrifuged at 49,000 g at 4° C. for 15 minutes. The pellets were re-suspended in 5 ml of 0.05 M Tris-HCl buffer pH 7.7 and incubated at 37° C. for 30 minutes, then centrifuged at 49,000 g at 4° C. for another 15 minutes. The final pellet from each rat brain was then re-suspended in 40 ml of 0.05 M Tris-HCl buffer pH 7.7 containing 100 μg/ml of Bacitracin and used for the binding assays.
The binding experiments were performed either at 25° C. for 20 minutes or at 0° C. for 3 hours. The reaction mixtures contained 1 ml of the rat membrane preparation as described, 1.5 nM of ^3 H-methionine enkephalinamide (38 Ci/m Mole) or ^3 H-naloxone (25 Ci/m Mole) together with bacterial extracts from pβgal or pβgal-end transformed cultures (4.5 mg protein for enkephalinamide rections and 0.65 μg protein for naloxone reactions). At the end of the binding reaction the mixture was filtered under vacuum over glass fiber filters (Whatman, Clifton, N.J., GH-B filters). […]

[5] = tested on: prostaglandin E1-stimulated adenylate cyclase of NG 108-15 cells; test: Inhibition of prostaglandin E1-stimulated adenylate cyclase activity in neuroblastoma-glioma hybrid cell line NG 108-15; type: biochemical; conditions: result in words; for reversal of the adenylate cyclase inhibition by naloxone: naloxone added

## CN1CC[C@]23c4c5ccc(O)c4O[C@H]2[C@@H](O)C=C[C@H]3[C@H]1C5 [morphine]
[1]
  inhibition of prostaglandin E1 stimulation of adenylate cyclase: This stimulation is inhibited by morphine

## C=CCN1CC[C@]23c4c5ccc(O)c4O[C@H]2C(=O)CC[C@@]3(O)[C@H]1C5 [naloxone]
[1]
  prevention of the inhibitory effect of morphine on stimulated adenylate cyclase: the inhibitory affect of morphine can be prevented by naloxone

## Gly^31 -endorphin (YGGFMTSEKSQTPLVTLFKNAIIKNAYKKGG; Beta-endorphin; UniProt P01189 237-267, looked up, variant E31G) ["super-agonist" endorphin analog described by Li, C; H]
[2]
  opiate agonist potency relative to endorphin: more potent opiate agonists than endorphin itself

## Gly^31 -endorphinamide
[2]
  opiate agonist potency relative to endorphin: more potent opiate agonists than endorphin itself

## Gly^31 -endorphinylglycine
[2]
  opiate agonist potency relative to endorphin: more potent opiate agonists than endorphin itself

## β-endorphin (YGGFMTSEKSQTPLVTLFKNAIIKNAHKKGQ; Beta-endorphin; UniProt P01193 205-235, looked up) [mouse β-endorphin, 31 amino acid polypeptide, released from the bacterial β-galactosidase fusion protein according to the invention]
[3]
  competition with labeled human β-endorphin for antiserum against mouse β-endorphin: immunologically reactive with antiserum raised against mouse endorphin
[4]
  displacement of opiate agonist (enkephalinamide) and opiate antagonist (naloxone) from rat brain opiate receptors: effective inhibitor
[4]; listed as Endorphin
  displacement of opiate agonist (enkephalinamide) and opiate antagonist (naloxone) from rat brain opiate receptors: displaced both the opiate agonist and the opiate antagonist
[5]
  inhibition of prostaglandin E1 stimulation of adenylate cyclase activity: inhibited the adenylate cyclase activity
  reversal of the adenylate cyclase inhibition by naloxone: the inhibition was reversed by the addition of naloxone
[5]; listed as Endorphin
  reversal of the adenylate cyclase inhibition by naloxone: inhibition was reversed by addition of the opiate antagonist naloxone
  inhibition of prostaglandin E1 stimulation of adenylate cyclase activity: significant inhibition
